Experiments:
Format in all cases: in vivo
[1] = test system: goosegrass (Eleusine indica); assay: Test B pre-/postemergence plant response; conditions: Preemergence, 62 g ai/ha; scale 0 to 100, 0 no effect, 100 complete control
corn (Zea mays) = assay: Test A pre-/postemergence plant response
Method in brief: (§1)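 Pre: directed soil spray on seeded loam/sand blend. Post: same formulation (non-phytotoxic solvent + surfactant) on 2–10 cm plants, 1–2 leaf stage. Greenhouse ~10 d; visual injury score 0–100 vs untreated.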

[2] = test system: wheat (Triticum aestivum); assay: Test A pre-/postemergence plant response
Method in brief: as §1

[3] = test system: barnyardgrass (Echinochloa crus-galli); assay: Test A pre-/postemergence plant response
Method in brief: as §1

[4] = test system: large crabgrass (Digitaria sanguinalis); assay: Test A pre-/postemergence plant response
Method in brief: as §1

[5] = test system: velvetleaf (Abutilon theophrasti); assay: Test A pre-/postemergence plant response
Method in brief: as §1

[6] = test system: giant foxtail (Setaria faberii); assay: Test A pre-/postemergence plant response
Method in brief: as §1

[7] = test system: canarygrass (Phalaris minor); assay: Test B postemergence plant response
Method in brief: (§2)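 Plants grown in peat/vermiculite medium were sprayed postemergence at 2–18 cm height (1- to 4-leaf stage). After 13–15 days in the greenhouse, response was rated visually against untreated controls on a 0–100 scale (0 no effect, 100 complete control).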

[8] = test system: chickweed (Stellaria media); assay: Test B postemergence plant response
Method in brief: as §2

[9] = test system: windgrass (Apera spica-venti); assay: Test B postemergence plant response
Method in brief: as §2

[10] = test system: winter barley (Hordeum vulgare); assay: Test B postemergence plant response
Method in brief: as §2

[11] = test system: nightshade (eastern black nightshade, Solanum ptycanthum); assay: Test B pre-/postemergence plant response; conditions: Preemergence; for Nightshade plant response rating: 125 g ai/ha
Method in brief: (§3)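 Compound in solvent + surfactant applied pre-em (loam/sand) or post-em (plants 2–18 cm, peat medium); greenhouse hold 13–15 days; visual 0–100 control score.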

[12] = test system: sunflower (common oilseed sunflower, Helianthus annuus); assay: Test B pre-/postemergence plant response; conditions: Preemergence; for Sunflower plant response rating: 125 g ai/ha
Method in brief: as §3

[13] = test system: galium (catchweed bedstraw, Galium aparine); assay: Test B pre-/postemergence plant response; conditions: Preemergence; for Galium plant response rating: 125 g ai/ha
Method in brief: as §3

[14] = Postemergence, 125 g ai/ha, visual injury, 0 to 100 scale (0 no effect, 100 complete control), approx. ten days
[15] = Postemergence, 500 g ai/ha, 0 to 100 scale, 0 = no effect, 100 = complete control, approx. ten days
[16] = Preemergence, 125 g ai/ha, 0 to 100 scale, 0 = no effect, 100 = complete control
[17] = Preemergence, 500 g ai/ha, visual injury, 0 to 100 scale (0 no effect, 100 complete control), approx. ten days
[18] = 31 g ai/ha, postemergence, scale 0 to 100, 0 is no effect, 100 is complete control
[19] = Postemergence, 62 g ai/ha, scale 0 (no effect) to 100 (complete control), 13 to 15 days
[20] = Postemergence, 125 g ai/ha, visual rating after 13 to 15 days, scale 0 (no effect) to 100 (complete control)
[21] = Postemergence, 250 g ai/ha, scale 0 to 100
[22] = 31 g ai/ha, scale 0 to 100 (0 no effect, 100 complete control)
[23] = 62 g ai/ha, scale 0 to 100, 0 no effect, 100 complete control
[24] = Postemergence, 250 g ai/ha, scale 0 to 100 (0 no effect, 100 complete control)

CCn1c(-c2ccccc2)ncc(C(=O)C2=C(O)CCCC2=O)c1=O [Compound 49]
Plant response rating, Goosegrass [1]: 95 | Corn plant response rating (corn (Zea mays); [14]): 0 | Plant response rating, Corn (corn (Zea mays); [15]): 20 | Plant response rating, Corn (corn (Zea mays); [16]): 0 | Plant response rating, Corn (corn (Zea mays); [17]): 0 | Wheat plant response rating [2, 14]: 0 | Plant response rating, Wheat [2, 15]: 0 | Plant response rating, Wheat [2, 16]: 0 | Plant response rating, Wheat [2, 17]: 0 | Barnyardgrass plant response rating [3, 14]: 60 | Plant response rating, Barnyardgrass [3, 15]: 90 | Plant response rating, Barnyardgrass [3, 16]: 20 | Plant response rating, Barnyardgrass [3, 17]: 60 | Crabgrass, Large plant response rating [4, 14]: 90 | Plant response rating, Crabgrass, Large [4, 15]: 90 | Plant response rating, Crabgrass, Large [4, 16]: 60 | Plant response rating, Crabgrass, Large [4, 17]: 90 | Velvetleaf plant response rating [5, 14]: 100 | Plant response rating, Velvetleaf [5, 15]: 100 | Plant response rating, Velvetleaf [5, 16]: 80 | Plant response rating, Velvetleaf [5, 17]: 90 | Foxtail, Giant plant response rating [6, 14]: 50 | Plant response rating, Foxtail, Giant [6, 15]: 80 | Plant response rating, Foxtail, Giant [6, 16]: 20 | Plant response rating, Foxtail, Giant [6, 17]: 50 | Plant response rating, Canarygrass [7, 18]: 0 | Plant response rating, Canarygrass [7, 19]: 0 | Plant response rating, Canarygrass [7, 20]: 0 | Canarygrass plant response rating [7, 21]: 0 | Plant response rating, Chickweed [8, 18]: 75 | Plant response rating, Chickweed [8, 19]: 75 | Plant response rating, Chickweed [8, 20]: 80 | Chickweed plant response rating [8, 21]: 90 | Plant response rating, Windgrass [9, 18]: 0 | Plant response rating, Windgrass [9, 19]: 0 | Plant response rating, Windgrass [9, 20]: 5 | Plant response rating, Barley [10, 18]: 0 | Plant response rating, Barley [10, 19]: 0 | Plant response rating, Barley [10, 20]: 0 | Barley plant response rating [10, 21]: 0 | Plant response rating, Nightshade ([11]; 250 g ai/ha, 0 to 100 scale): 98 | Plant response rating, Nightshade [11, 22]: 98 | Plant response rating, Nightshade [11, 23]: 98 | Nightshade plant response rating ([11]; 0 to 100 scale): 98 | Plant response rating, Sunflower ([12]; 250 g ai/ha, 0 to 100 scale): 75 | Plant response rating, Sunflower [12, 22]: 60 | Sunflower plant response rating ([12]; 0 to 100 scale): 75 | Plant response rating, Galium ([13]; 250 g ai/ha, 0 to 100 scale): 95 | Plant response rating, Galium [13, 22]: 0 | Plant response rating, Galium [13, 23]: 80 | Galium plant response rating ([13]; 0 to 100 scale): 90

CCCn1c(-c2ccccc2)ncc(C(=O)C2=C(O)CCCC2=O)c1=O [Compound 50]
Plant response rating, Goosegrass [1]: 98 | Corn plant response rating (corn (Zea mays); [14]): 0 | Plant response rating, Corn (corn (Zea mays); [15]): 30 | Plant response rating, Corn (corn (Zea mays); [16]): 0 | Plant response rating, Corn (corn (Zea mays); [17]): 0 | Wheat plant response rating [2, 14]: 0 | Plant response rating, Wheat [2, 15]: 0 | Plant response rating, Wheat [2, 16]: 0 | Plant response rating, Wheat [2, 17]: 0 | Barnyardgrass plant response rating [3, 14]: 90 | Plant response rating, Barnyardgrass [3, 15]: 100 | Plant response rating, Barnyardgrass [3, 16]: 50 | Plant response rating, Barnyardgrass [3, 17]: 90 | Crabgrass, Large plant response rating [4, 14]: 90 | Plant response rating, Crabgrass, Large [4, 15]: 90 | Plant response rating, Crabgrass, Large [4, 16]: 90 | Plant response rating, Crabgrass, Large [4, 17]: 100 | Velvetleaf plant response rating [5, 14]: 100 | Plant response rating, Velvetleaf [5, 15]: 100 | Plant response rating, Velvetleaf [5, 16]: 80 | Plant response rating, Velvetleaf [5, 17]: 90 | Foxtail, Giant plant response rating [6, 14]: 90 | Plant response rating, Foxtail, Giant [6, 15]: 90 | Plant response rating, Foxtail, Giant [6, 16]: 50 | Plant response rating, Foxtail, Giant [6, 17]: 80 | Plant response rating, Canarygrass [7, 18]: 0 | Plant response rating, Canarygrass [7, 19]: 0 | Plant response rating, Canarygrass [7, 20]: 5 | Plant response rating, Canarygrass [7, 24]: 5 | Plant response rating, Chickweed [8, 18]: 80 | Plant response rating, Chickweed [8, 19]: 80 | Plant response rating, Chickweed [8, 20]: 98 | Plant response rating, Chickweed [8, 24]: 98 | Plant response rating, Windgrass [9, 18]: 10 | Plant response rating, Windgrass [9, 19]: 50 | Plant response rating, Windgrass [9, 20]: 60 | Plant response rating, Windgrass [9, 24]: 80 | Plant response rating, Barley [10, 18]: 0 | Plant response rating, Barley [10, 19]: 0 | Plant response rating, Barley [10, 20]: 5 | Plant response rating, Barley [10, 24]: 5 | Plant response rating, Nightshade ([11]; 250 g ai/ha, 0 to 100 scale): 100 | Plant response rating, Nightshade [11, 22]: 100 | Plant response rating, Nightshade [11, 23]: 100 | Nightshade plant response rating ([11]; 0 to 100 scale): 100 | Plant response rating, Sunflower ([12]; 250 g ai/ha, 0 to 100 scale): 85 | Plant response rating, Sunflower [12, 22]: 55 | Sunflower plant response rating ([12]; 0 to 100 scale): 85 | Plant response rating, Galium ([13]; 250 g ai/ha, 0 to 100 scale): 98 | Plant response rating, Galium [13, 22]: 70 | Plant response rating, Galium [13, 23]: 95 | Galium plant response rating ([13]; 0 to 100 scale): 95

Cc1ccc(F)c(-n2c(-c3ccccc3)ncc(C(=O)C3=C(O)CCCC3=O)c2=O)c1 [Compound 51]
Plant response rating, Goosegrass [1]: 100 | Corn plant response rating (corn (Zea mays); [14]): 0 | Plant response rating, Corn (corn (Zea mays); [15]): 80 | Plant response rating, Corn (corn (Zea mays); [16]): 0 | Plant response rating, Corn (corn (Zea mays); [17]): 0 | Wheat plant response rating [2, 14]: 0 | Plant response rating, Wheat [2, 15]: 0 | Plant response rating, Wheat [2, 16]: 0 | Plant response rating, Wheat [2, 17]: 0 | Barnyardgrass plant response rating [3, 14]: 90 | Plant response rating, Barnyardgrass [3, 15]: 90 | Plant response rating, Barnyardgrass [3, 16]: 10 | Plant response rating, Barnyardgrass [3, 17]: 90 | Crabgrass, Large plant response rating [4, 14]: 90 | Plant response rating, Crabgrass, Large [4, 15]: 100 | Plant response rating, Crabgrass, Large [4, 16]: 30 | Plant response rating, Crabgrass, Large [4, 17]: 100 | Velvetleaf plant response rating [5, 14]: 100 | Plant response rating, Velvetleaf [5, 15]: 100 | Plant response rating, Velvetleaf [5, 16]: 70 | Plant response rating, Velvetleaf [5, 17]: 90 | Foxtail, Giant plant response rating [6, 14]: 90 | Plant response rating, Foxtail, Giant [6, 15]: 90 | Plant response rating, Foxtail, Giant [6, 16]: 30 | Plant response rating, Foxtail, Giant [6, 17]: 100 | Plant response rating, Canarygrass [7, 18]: 60 | Plant response rating, Canarygrass [7, 19]: 60 | Plant response rating, Canarygrass [7, 20]: 60 | Plant response rating, Canarygrass [7, 24]: 98 | Plant response rating, Chickweed [8, 18]: 80 | Plant response rating, Chickweed [8, 19]: 80 | Plant response rating, Chickweed [8, 20]: 85 | Plant response rating, Chickweed [8, 24]: 95 | Plant response rating, Windgrass [9, 18]: 50 | Plant response rating, Windgrass [9, 19]: 60 | Plant response rating, Windgrass [9, 20]: 60 | Plant response rating, Windgrass [9, 24]: 85 | Plant response rating, Barley [10, 18]: 5 | Plant response rating, Barley [10, 19]: 25 | Plant response rating, Barley [10, 20]: 30 | Plant response rating, Barley [10, 24]: 50 | Plant response rating, Nightshade ([11]; 250 g ai/ha, 0 to 100 scale): 100 | Plant response rating, Nightshade [11, 22]: 98 | Plant response rating, Nightshade [11, 23]: 98 | Nightshade plant response rating ([11]; 0 to 100 scale): 98 | Plant response rating, Sunflower ([12]; 250 g ai/ha, 0 to 100 scale): 75 | Plant response rating, Sunflower [12, 22]: 20 | Sunflower plant response rating ([12]; 0 to 100 scale): 75 | Plant response rating, Galium ([13]; 250 g ai/ha, 0 to 100 scale): 95 | Plant response rating, Galium [13, 22]: 0 | Plant response rating, Galium [13, 23]: 75 | Galium plant response rating ([13]; 0 to 100 scale): 80
